Test results from the CheMixHub viscosity set.
± gives the uncertainty stated by the source.

Assay: xn = mol fraction of the nth substance listed

NC1CCCCC1 + CCCO
viscosity [mPa·s], 101 kPa
Settings	293.15 K	298.15 K	303.15 K
x1 = 0.0549	2.253 ± 0.047	2.004 ± 0.042	1.773 ± 0.037
x1 = 0.102	2.29 ± 0.047	2.036 ± 0.042	1.803 ± 0.037
x1 = 0.1983	2.392 ± 0.05	2.12 ± 0.044	1.871 ± 0.039
x1 = 0.3117	2.512 ± 0.052	2.213 ± 0.046	1.946 ± 0.04
x1 = 0.3529	2.548 ± 0.053	2.241 ± 0.047	1.968 ± 0.041
x1 = 0.4031	2.578 ± 0.054	2.266 ± 0.047	1.985 ± 0.041
x1 = 0.4387	2.588 ± 0.054	2.274 ± 0.047	1.996 ± 0.042
x1 = 0.4926	2.589 ± 0.054	2.271 ± 0.047	1.999 ± 0.042
x1 = 0.5491	2.568 ± 0.053	2.261 ± 0.047	1.992 ± 0.041
x1 = 0.6111	2.534 ± 0.053	2.229 ± 0.046	1.964 ± 0.041
x1 = 0.6604	2.485 ± 0.052	2.19 ± 0.046	1.928 ± 0.04
x1 = 0.704	2.454 ± 0.051	2.168 ± 0.045	1.91 ± 0.04
x1 = 0.7984	2.349 ± 0.049	2.078 ± 0.043	1.837 ± 0.038
x1 = 0.8844	2.241 ± 0.047	1.991 ± 0.042	1.766 ± 0.037
x1 = 0.9389	2.197 ± 0.046	1.955 ± 0.041	1.735 ± 0.036

O=S(=O)([O-])NC1CCCCC1.[Na+] + O
viscosity [mPa·s], 101 kPa
Settings	x1 = 0.0007834	x1 = 0.001319	x1 = 0.001692	x1 = 0.002246	x1 = 0.002766	x1 = 0.003045	x1 = 0.00349	x1 = 0.004121	x1 = 0.00513	x1 = 0.005949
293.15 K	1.028 ± 0.0069	1.045 ± 0.007	1.058 ± 0.007	1.078 ± 0.0072	1.096 ± 0.0073	1.107 ± 0.0073	1.124 ± 0.0074	1.147 ± 0.0076	1.184 ± 0.0078	1.217 ± 0.008
298.15 K	0.9131 ± 0.0062	0.9289 ± 0.0063	0.9398 ± 0.0063	0.9564 ± 0.0064	0.973 ± 0.0065	0.9813 ± 0.0066	0.9953 ± 0.0067	1.015 ± 0.0068	1.047 ± 0.007	1.075 ± 0.0071
303.15 K	0.8176 ± 0.0056	0.8313 ± 0.0057	0.8413 ± 0.0057	0.8553 ± 0.0058	0.8697 ± 0.0059	0.8768 ± 0.0059	0.889 ± 0.006	0.9061 ± 0.0061	0.9337 ± 0.0063	0.9581 ± 0.0064
313.15 K	0.6686 ± 0.0047	0.6797 ± 0.0048	0.6875 ± 0.0048	0.6983 ± 0.0049	0.7094 ± 0.005	0.7149 ± 0.005	0.7243 ± 0.005	0.7375 ± 0.0051	0.7588 ± 0.0052	0.7774 ± 0.0053
323.15 K	0.5593 ± 0.0041	0.568 ± 0.0041	0.5741 ± 0.0042	0.5829 ± 0.0042	0.5918 ± 0.0043	0.5961 ± 0.0043	0.6036 ± 0.0043	0.6142 ± 0.0044	0.6312 ± 0.0045	0.6458 ± 0.0046

CC(O)CO (configuration not stated) + OCCO
viscosity [mPa·s], 101 kPa
Settings	x2 = 0.1212	x2 = 0.2346	x2 = 0.3459	x2 = 0.4339	x2 = 0.5501	x2 = 0.631	x2 = 0.7481	x2 = 0.8299	x2 = 0.9064
298.15 K	41.61 ± 0.24	38.96 ± 0.25	36.05 ± 0.25	33.67 ± 0.25	30.55 ± 0.25	28.37 ± 0.25	25.1 ± 0.24	22.65 ± 0.23	20.25 ± 0.22
303.15 K	32.39 ± 0.19	30.43 ± 0.2	28.19 ± 0.2	26.35 ± 0.2	23.95 ± 0.2	22.28 ± 0.2	19.75 ± 0.19	17.84 ± 0.18	15.99 ± 0.17
308.15 K	24.28 ± 0.15	22.97 ± 0.15	21.42 ± 0.15	20.15 ± 0.15	18.48 ± 0.16	17.31 ± 0.15	15.55 ± 0.15	14.2 ± 0.15	12.9 ± 0.14

O=C[O-].OCC[NH2+]CCO + O
100 kPa
Settings	viscosity [mPa·s]
293.15 K, x2 = 0.8484	8.19 ± 1.7
303.15 K, x2 = 0.4068	75.66 ± 15
303.15 K, x2 = 0.4845	65.08 ± 13
303.15 K, x2 = 0.7816	11.05 ± 2.2
303.15 K, x2 = 0.8484	5.927 ± 1.2
313.15 K, x2 = 0.2013	99.28 ± 20
313.15 K, x2 = 0.2622	77.5 ± 16
313.15 K, x2 = 0.7816	7.98 ± 1.6
323.15 K, x2 = 0.2013	61.45 ± 12
323.15 K, x2 = 0.7816	6.008 ± 1.2
323.15 K, x2 = 0.9708	0.9306 ± 0.19

CC(O)CO (configuration not stated) + CC(C)=O
viscosity [mPa·s], 100 kPa
Settings	x2 = 0.1	x2 = 0.2	x2 = 0.2998	x2 = 0.3999	x2 = 0.5004	x2 = 0.5999	x2 = 0.6999	x2 = 0.8	x2 = 0.9001
293.15 K	29.94 ± 3	14.46 ± 1.4	7.145 ± 0.72	3.875 ± 0.39	2.363 ± 0.24	1.532 ± 0.15	0.934 ± 0.094	0.601 ± 0.06	0.4671 ± 0.047
298.15 K	22.95 ± 2.3	11.54 ± 1.2	5.918 ± 0.59	3.303 ± 0.33	2.066 ± 0.21	1.356 ± 0.14	0.8597 ± 0.086	0.5688 ± 0.057	0.4463 ± 0.045
303.15 K	17.9 ± 1.8	9.34 ± 0.93	4.965 ± 0.5	2.882 ± 0.29	1.821 ± 0.18	1.201 ± 0.12	0.7943 ± 0.08	0.5379 ± 0.054	0.4209 ± 0.042
308.15 K	14.19 ± 1.4	7.662 ± 0.77	4.208 ± 0.42	2.55 ± 0.26	1.614 ± 0.16	1.103 ± 0.11	0.7356 ± 0.074	0.5208 ± 0.052	0.3953 ± 0.04
313.15 K	11.41 ± 1.1	6.362 ± 0.64	3.602 ± 0.36	2.189 ± 0.22	1.44 ± 0.14	0.9924 ± 0.099	0.6822 ± 0.068	0.4945 ± 0.05	0.377 ± 0.038
318.15 K	9.297 ± 0.93	5.341 ± 0.53	3.109 ± 0.31	1.971 ± 0.2	1.298 ± 0.13	0.8944 ± 0.09	0.6317 ± 0.063	0.4731 ± 0.048	0.3691 ± 0.037
323.15 K	7.672 ± 0.77	4.529 ± 0.45	2.71 ± 0.27	1.717 ± 0.17	1.175 ± 0.12	0.815 ± 0.082	0.5813 ± 0.058	0.4533 ± 0.046	0.3477 ± 0.035

ClC=C(Cl)Cl + CC(C)CO
viscosity [mPa·s]
Settings	293.15 K	303.15 K	313.15 K
101.3 kPa, x1 = 0.1086	–	2.134 ± 0.027	–
101.3 kPa, x1 = 0.2127	–	1.627 ± 0.021	–
101.3 kPa, x1 = 0.3178	–	1.273 ± 0.017	–
101.3 kPa, x1 = 0.4018	–	1.075 ± 0.014	–
101.3 kPa, x1 = 0.5178	–	0.889 ± 0.012	–
101.3 kPa, x1 = 0.6042	–	0.795 ± 0.011	–
101.3 kPa, x1 = 0.7191	–	0.703 ± 0.01	–
101.3 kPa, x1 = 0.8127	–	0.644 ± 0.009	–
101.3 kPa, x1 = 0.9144	–	0.581 ± 0.008	–
101.33 kPa, x2 = 0.15	0.8993 ± 0.016	0.7678 ± 0.014	0.6502 ± 0.012
101.33 kPa, x2 = 0.3	1.228 ± 0.022	1.005 ± 0.018	0.8284 ± 0.015
101.33 kPa, x2 = 0.45	1.556 ± 0.027	1.242 ± 0.022	1.007 ± 0.018
101.33 kPa, x2 = 0.6	1.884 ± 0.032	1.478 ± 0.026	1.185 ± 0.021
101.33 kPa, x2 = 0.75	2.213 ± 0.038	1.715 ± 0.029	1.365 ± 0.024
101.33 kPa, x2 = 0.9	2.541 ± 0.043	1.952 ± 0.033	1.542 ± 0.027

NC1CCCCC1 + CS(C)=O
303.15 K, 101 kPa
Settings	viscosity [mPa·s]
x2 = 0.1	1.571 ± 0.017
x2 = 0.1807	1.518 ± 0.016
x2 = 0.2707	1.481 ± 0.015
x2 = 0.3707	1.467 ± 0.014
x2 = 0.4679	1.47 ± 0.013
x2 = 0.5654	1.497 ± 0.012
x2 = 0.6703	1.542 ± 0.012
x2 = 0.7894	1.611 ± 0.011
x2 = 0.8913	1.692 ± 0.011
